{"source": "ChEMBL document CHEMBL1201862", "about": "“PubChem BioAssay data set” (2004)", "key": {"[1]": {"target": "Dual specificity tyrosine-phosphorylation-regulated kinase 1A (Rattus norvegicus, UniProt Q63470)", "assay_type": "biochemical, Homo sapiens"}, "Hexokinase-1": {"target": "Hexokinase-1 (Homo sapiens, UniProt P19367)", "sequence (P19367 whole entry)": "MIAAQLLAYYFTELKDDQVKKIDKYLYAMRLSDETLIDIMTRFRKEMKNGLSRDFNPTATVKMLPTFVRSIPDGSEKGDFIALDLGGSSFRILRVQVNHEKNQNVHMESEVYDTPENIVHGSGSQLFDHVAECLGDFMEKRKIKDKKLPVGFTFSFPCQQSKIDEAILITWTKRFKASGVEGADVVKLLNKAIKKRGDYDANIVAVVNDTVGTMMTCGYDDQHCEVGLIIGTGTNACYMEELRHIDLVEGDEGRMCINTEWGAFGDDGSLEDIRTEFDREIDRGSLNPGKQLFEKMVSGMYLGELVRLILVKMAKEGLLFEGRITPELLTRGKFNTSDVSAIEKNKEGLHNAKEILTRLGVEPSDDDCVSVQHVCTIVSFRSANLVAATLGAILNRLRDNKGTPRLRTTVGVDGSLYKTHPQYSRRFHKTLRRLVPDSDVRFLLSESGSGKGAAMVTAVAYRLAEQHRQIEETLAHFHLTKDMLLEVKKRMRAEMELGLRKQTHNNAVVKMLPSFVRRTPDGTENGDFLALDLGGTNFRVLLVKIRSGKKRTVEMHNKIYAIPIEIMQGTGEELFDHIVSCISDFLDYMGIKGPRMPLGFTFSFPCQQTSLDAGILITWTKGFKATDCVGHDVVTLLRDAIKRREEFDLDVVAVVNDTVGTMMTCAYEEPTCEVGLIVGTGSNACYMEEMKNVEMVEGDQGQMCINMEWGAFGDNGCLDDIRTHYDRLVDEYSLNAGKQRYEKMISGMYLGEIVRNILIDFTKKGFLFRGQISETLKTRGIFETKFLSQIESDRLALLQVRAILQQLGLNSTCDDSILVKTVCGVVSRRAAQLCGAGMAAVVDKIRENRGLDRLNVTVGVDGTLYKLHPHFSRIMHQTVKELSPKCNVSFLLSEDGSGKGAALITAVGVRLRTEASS", "assay": "hexokinase 1 activators, dose response, selectivity assay for HKDC1 activator project, biochemical (AID 504762)", "assay_type": "functional"}, "[2]": {"target": "DNA dC->dU-editing enzyme APOBEC-3A (Homo sapiens, UniProt P31941)", "assay": "APOBEC3A DNA deaminase inhibitors, dose response, biochemical (AID 504722)", "assay_type": "functional"}, "[3]": {"assay": "human group III sPLA2 inhibitors, dose response, biochemical, QFRET, IC50 (AID 743457);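 also: green fluorescence rise as the enzyme cleaves BODIPY PC-A2 in liposomes; potency for inhibition of the enzyme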"}, "Hexokinase HKDC1": {"target": "Hexokinase HKDC1 (Homo sapiens, UniProt Q2TB90)", "sequence (Q2TB90 whole entry)": "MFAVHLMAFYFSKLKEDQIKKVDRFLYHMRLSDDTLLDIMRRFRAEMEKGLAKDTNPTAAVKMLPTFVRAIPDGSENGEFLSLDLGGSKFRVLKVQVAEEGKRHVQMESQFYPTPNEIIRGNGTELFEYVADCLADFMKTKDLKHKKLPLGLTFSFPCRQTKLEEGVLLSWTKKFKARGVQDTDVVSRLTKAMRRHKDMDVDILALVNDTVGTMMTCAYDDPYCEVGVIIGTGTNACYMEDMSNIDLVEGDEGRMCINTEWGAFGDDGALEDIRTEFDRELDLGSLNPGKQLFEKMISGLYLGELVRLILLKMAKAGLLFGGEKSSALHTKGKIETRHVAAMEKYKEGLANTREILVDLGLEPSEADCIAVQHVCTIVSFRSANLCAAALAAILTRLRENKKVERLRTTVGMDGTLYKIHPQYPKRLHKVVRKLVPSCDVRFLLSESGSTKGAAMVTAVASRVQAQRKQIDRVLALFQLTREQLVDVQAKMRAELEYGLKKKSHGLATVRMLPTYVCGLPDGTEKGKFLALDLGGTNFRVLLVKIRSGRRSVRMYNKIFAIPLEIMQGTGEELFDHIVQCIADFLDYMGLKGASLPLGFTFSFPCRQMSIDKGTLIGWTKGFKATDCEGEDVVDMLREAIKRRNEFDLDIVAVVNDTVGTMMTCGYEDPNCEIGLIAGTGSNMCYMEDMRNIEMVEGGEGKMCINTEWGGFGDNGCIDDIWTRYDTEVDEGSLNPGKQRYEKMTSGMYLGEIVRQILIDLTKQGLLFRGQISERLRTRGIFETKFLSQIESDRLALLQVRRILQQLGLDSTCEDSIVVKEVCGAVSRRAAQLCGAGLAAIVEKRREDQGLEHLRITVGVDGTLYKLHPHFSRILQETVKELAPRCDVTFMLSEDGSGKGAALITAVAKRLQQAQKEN", "assay": "HKDC1 hexokinase activators, dose response, biochemical, W721R variant (AID 504730)", "assay_type": "functional"}, "[4]": {"target": "Glucose-6-phosphate 1-dehydrogenase (Homo sapiens, UniProt P11413)", "sequence (P11413 whole entry)": "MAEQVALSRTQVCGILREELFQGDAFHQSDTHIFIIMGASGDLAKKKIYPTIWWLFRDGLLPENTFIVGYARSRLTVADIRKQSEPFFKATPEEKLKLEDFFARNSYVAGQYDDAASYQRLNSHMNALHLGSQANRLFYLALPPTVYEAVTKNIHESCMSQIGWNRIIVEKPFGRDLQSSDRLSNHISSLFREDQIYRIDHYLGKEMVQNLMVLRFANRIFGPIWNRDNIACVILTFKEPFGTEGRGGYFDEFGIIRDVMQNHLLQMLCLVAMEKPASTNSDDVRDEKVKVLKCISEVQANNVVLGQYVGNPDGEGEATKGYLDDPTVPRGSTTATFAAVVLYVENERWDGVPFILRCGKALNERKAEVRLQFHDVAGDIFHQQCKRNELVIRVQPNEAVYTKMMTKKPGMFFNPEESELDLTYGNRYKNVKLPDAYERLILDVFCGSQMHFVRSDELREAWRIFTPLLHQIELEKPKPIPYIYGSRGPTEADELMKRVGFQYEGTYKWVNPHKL", "assay": "human G6PD enzyme inhibitors, dose response, selectivity assay for P. falciparum G6PD inhibitor project, biochemical, fluorescence (AID 504792)", "assay_type": "functional"}, "Genome polyprotein": {"target": "Genome polyprotein (dengue virus type 2, UniProt P29990)", "sequence (P29990 2492-3391 limits assumed)": "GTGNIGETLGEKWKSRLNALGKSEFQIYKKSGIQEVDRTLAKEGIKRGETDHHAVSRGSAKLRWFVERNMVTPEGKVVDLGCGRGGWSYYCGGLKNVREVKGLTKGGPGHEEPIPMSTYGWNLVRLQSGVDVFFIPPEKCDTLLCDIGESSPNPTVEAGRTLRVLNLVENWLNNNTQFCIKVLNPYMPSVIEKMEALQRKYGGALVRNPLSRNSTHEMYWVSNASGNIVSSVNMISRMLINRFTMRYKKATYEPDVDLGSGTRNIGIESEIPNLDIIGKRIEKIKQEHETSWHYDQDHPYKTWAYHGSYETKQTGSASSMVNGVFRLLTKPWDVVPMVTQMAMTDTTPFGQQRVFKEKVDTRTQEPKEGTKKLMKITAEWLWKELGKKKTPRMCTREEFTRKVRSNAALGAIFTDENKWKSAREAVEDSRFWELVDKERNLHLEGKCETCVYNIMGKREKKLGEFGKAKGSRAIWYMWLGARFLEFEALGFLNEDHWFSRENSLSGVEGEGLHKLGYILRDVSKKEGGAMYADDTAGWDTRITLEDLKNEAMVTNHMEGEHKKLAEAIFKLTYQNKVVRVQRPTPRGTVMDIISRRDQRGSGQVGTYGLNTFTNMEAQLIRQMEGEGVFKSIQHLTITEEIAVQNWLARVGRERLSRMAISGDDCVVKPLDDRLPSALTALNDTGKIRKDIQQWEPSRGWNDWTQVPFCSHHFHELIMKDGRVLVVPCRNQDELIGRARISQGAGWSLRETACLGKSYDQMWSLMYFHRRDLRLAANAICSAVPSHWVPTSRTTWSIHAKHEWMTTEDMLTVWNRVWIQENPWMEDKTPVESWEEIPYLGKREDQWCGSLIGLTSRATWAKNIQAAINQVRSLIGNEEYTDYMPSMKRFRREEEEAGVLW", "assay": "Dengue-2 NS5 methyltransferase inhibitors, primary screen, biochemical, confirmation dose response (AID 588689)", "assay_type": "functional"}, "[5]": {"target": "DNA dC->dU-editing enzyme APOBEC-3G (Homo sapiens, UniProt Q9HC16)", "sequence (Q9HC16 whole entry)": "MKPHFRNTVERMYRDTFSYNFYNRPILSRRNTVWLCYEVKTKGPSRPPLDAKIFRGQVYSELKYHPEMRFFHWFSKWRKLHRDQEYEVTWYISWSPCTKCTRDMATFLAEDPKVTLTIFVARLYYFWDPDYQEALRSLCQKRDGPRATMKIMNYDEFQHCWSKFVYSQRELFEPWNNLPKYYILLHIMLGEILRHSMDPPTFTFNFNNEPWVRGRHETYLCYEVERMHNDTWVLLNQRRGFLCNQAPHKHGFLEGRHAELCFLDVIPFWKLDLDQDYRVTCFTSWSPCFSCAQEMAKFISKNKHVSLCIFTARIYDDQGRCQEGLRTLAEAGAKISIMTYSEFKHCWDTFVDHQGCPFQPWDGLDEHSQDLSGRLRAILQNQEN", "assay": "Dose Response confirmation of small molecule APOBEC3G DNA Deaminase Inhibitors via a fluorescence-based single-stranded DNA deaminase assay. [Related pubchem assays (depositor defined):AID493012, AID493028]", "assay_type": "functional"}, "[6]": {"assay": "NIH-3T3 fibroblast cytotoxicity, dose response, cytotoxicity control, cell-based, fluorescence, Alamar Blue, secondary assay (AID 2327);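 also: NIH-3T3 mouse fibroblasts cultured with fluconazole at 8 µg/mL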", "assay_type": "functional"}, "[7]": {"target": "ATP-dependent molecular chaperone HSP82 (Candida albicans (strain WO-1) (Yeast), UniProt C4YTQ8)", "sequence (C4YTQ8 whole entry)": "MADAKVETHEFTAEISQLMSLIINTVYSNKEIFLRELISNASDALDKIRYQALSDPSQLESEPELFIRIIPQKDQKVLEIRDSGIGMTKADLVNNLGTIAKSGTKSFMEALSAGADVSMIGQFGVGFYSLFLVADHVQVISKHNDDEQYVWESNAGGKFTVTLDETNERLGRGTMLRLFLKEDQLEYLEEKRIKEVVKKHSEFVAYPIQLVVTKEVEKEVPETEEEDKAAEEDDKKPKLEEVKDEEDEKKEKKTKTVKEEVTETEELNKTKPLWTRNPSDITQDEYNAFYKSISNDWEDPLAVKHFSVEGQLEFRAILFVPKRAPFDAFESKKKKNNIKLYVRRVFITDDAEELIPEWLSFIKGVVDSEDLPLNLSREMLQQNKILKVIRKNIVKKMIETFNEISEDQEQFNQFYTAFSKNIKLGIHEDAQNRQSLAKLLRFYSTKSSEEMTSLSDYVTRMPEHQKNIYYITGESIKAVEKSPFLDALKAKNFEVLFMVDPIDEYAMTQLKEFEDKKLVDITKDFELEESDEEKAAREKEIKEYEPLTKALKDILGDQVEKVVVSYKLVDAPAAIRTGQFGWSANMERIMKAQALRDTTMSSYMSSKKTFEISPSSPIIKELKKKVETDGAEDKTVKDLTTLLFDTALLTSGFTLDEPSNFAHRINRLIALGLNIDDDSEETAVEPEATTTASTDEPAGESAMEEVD", "assay": "loss of DOC-induced GRE-beta-galactosidase reporter signal, dose response, Hsp90 inhibitor project, S. cerevisiae, luminescence (AID 2400);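 also: beta-galactosidase luminescence from glucocorticoid response element reporter as proxy for Hsp90 function; inhibitor potency where signal loss means Hsp90 inhibition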", "assay_type": "functional, cell-based"}, "[8]": {"target": "Serine/threonine-protein phosphatase (Candida dubliniensis (strain CD36 / CBS 7987 / NCPF 3949 / NRRLY-17841) (Yeast), UniProt B9W6M3)", "sequence (B9W6M3 whole entry)": "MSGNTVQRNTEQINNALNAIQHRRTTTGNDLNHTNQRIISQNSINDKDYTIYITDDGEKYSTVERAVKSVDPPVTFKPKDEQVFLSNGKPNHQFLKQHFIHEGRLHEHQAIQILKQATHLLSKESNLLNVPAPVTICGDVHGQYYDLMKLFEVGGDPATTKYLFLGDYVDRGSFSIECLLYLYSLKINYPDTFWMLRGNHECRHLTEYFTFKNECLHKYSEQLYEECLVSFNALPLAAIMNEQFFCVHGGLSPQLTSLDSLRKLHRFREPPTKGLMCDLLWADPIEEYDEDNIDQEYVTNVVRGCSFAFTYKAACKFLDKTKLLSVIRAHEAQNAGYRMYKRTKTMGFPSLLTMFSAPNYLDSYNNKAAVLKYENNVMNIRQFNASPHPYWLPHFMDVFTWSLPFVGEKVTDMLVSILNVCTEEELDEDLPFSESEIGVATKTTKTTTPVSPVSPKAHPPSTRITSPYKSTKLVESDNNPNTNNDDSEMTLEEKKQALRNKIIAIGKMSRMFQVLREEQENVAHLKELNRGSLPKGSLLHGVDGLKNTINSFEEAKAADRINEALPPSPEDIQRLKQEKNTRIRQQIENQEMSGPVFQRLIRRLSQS", "assay": "calcineurin pathway inhibitors in yeast reporter, dose response, S. cerevisiae, CDRE-lacZ, luminescence, secondary (AID 2388);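 also: yeast reporter cells carrying a calcineurin-responsive lacZ construct stimulated with calcium chloride; luminescent beta-galactosidase reporter signal in whole cells rather than isolated phosphatase activity; potency for inhibition where a drop in reporter signal means calcineurin blockade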", "assay_type": "functional, cell-based"}, "[9]": {"assay": "C. albicans growth with fluconazole, confirmation, fluorescence, retest (AID 2467)", "assay_type": "functional, cell-based"}, "[10]": {"target": "T1, RNA-binding protein pos-1 (Caenorhabditis elegans, UniProt G5EF15)", "T1 sequence (G5EF15 whole entry)": "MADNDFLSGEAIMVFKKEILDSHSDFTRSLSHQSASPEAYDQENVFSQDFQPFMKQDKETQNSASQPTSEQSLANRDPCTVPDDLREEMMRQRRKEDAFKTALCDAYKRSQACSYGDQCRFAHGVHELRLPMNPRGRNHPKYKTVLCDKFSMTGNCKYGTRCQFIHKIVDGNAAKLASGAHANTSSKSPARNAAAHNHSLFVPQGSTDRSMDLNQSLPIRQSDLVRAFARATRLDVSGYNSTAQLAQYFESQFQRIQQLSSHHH", "assay": "inhibitors of POS-1/mex-3 RNA binding, dose response, biochemical, fluorescence polarization (AID 1964);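 also: purified POS-1 fused to maltose binding protein made in E. coli; potency of compounds blocking POS-1 binding to fluorescent RNA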"}, "[11]": {"target": "T2, Zinc finger protein mex-5 (Caenorhabditis elegans, UniProt Q9XUB2)", "T2 sequence (Q9XUB2 whole entry)": "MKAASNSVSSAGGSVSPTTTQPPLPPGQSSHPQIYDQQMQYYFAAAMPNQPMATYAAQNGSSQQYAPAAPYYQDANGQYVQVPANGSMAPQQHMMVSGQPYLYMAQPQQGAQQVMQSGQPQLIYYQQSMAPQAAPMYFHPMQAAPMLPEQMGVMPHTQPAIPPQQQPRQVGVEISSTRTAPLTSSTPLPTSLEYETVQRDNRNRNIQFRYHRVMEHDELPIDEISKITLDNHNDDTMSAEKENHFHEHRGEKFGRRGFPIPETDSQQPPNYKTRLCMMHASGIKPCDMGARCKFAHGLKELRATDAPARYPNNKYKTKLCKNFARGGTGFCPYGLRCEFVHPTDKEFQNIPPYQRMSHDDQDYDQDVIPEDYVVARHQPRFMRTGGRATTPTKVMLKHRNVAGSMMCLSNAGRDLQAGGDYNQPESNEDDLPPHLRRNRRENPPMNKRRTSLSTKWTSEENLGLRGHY", "assay": "MEX-5/TCR-2 RNA interaction inhibitors, dose response, biochemical, C. elegans, fluorescence polarization (AID 1960)"}, "Caspase-6": {"target": "T3, Caspase-6 (Homo sapiens, UniProt P55212)", "T3 sequence (P55212 whole entry)": "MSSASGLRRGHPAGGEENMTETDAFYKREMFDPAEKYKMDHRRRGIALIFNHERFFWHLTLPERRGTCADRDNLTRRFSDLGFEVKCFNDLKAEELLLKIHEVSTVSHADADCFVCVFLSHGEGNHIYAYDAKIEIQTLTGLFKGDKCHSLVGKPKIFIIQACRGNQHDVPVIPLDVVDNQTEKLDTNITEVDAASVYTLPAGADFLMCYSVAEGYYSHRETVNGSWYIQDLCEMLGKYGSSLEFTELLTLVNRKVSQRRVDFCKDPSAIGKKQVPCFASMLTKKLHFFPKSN", "assay": "human caspase-6 inhibitors, dose response, biochemical, VEID-R110 fluorescence, cherry-pick (AID 720632)"}, "A-375 [12]": {"test_system": "A-375", "assay": "A375 melanoma cell viability reduction, dose response, counter-screen for MITF modulator project, cherry-pick samples, set 2 (AID 540335)", "assay_type": "functional, cell-based", "settings": "Homo sapiens"}, "HeLa": {"test_system": "HeLa", "assay": "HeLa cell cytotoxicity, dose response, cytotoxicity control for MITF activator project, CellTiter-Glo luminescence, cherry-pick samples (AID 540259)", "assay_type": "functional, cell-based", "settings": "Homo sapiens"}, "A-375 [13]": {"test_system": "A-375", "assay": "MITF: Counter assay: A375 proliferation Measured in Cell-Based System Using Plate Reader - 2084-03_Inhibitor_Dose_DryPowder_Activity. [Related pubchem assays (depositor defined):AID488944]", "assay_type": "functional", "settings": "Homo sapiens"}}, "note": "Calls of active or inactive are those of the source.", "data": [{"compound": "Cc1nc2c(ccc3nc(NC(=O)Cc4ccccc4)sc32)s1", "values": [{"measurement": "AC50", "setting": "[1]", "result": "0.73 µM (active)"}]}, {"compound": "COc1cc(N=c2ssnc2Cl)c(OC)cc1Cl", "values": [{"measurement": "EC50", "setting": "Hexokinase-1", "result": "41.9 µM (inactive)"}, {"measurement": "IC50", "setting": "[2]", "result": "> 100 µM (inactive)"}, {"measurement": "IC50", "setting": "[3]", "result": "92.1 µM (inactive)"}, {"measurement": "EC50", "setting": "Hexokinase HKDC1", "result": "27.2 µM (inactive)"}, {"measurement": "IC50", "setting": "[4]", "result": "68.8 µM (inactive)"}, {"measurement": "IC50", "setting": "Genome polyprotein", "result": "> 100 µM (active)"}, {"measurement": "IC50", "setting": "[5]", "result": "8.83 µM (active)"}]}, {"compound": "O=C(Nc1cccc(-c2cn3ccccc3n2)c1)c1cccc(Cl)c1", "values": [{"measurement": "EC50", "setting": "[6]", "result": "11 µM (active)"}, {"measurement": "EC50", "setting": "[7]", "result": "> 160 µM (inactive)"}, {"measurement": "EC50", "setting": "[8]", "result": "> 180 µM (inactive)"}, {"measurement": "EC50", "setting": "[9]", "result": "1.05 µM (active)"}]}, {"compound": "Cc1cc(/C=N/Nc2ccc([N+](=O)[O-])cn2)c(C)n1-c1cccc(C(=O)O)c1", "values": [{"measurement": "EC50", "setting": "[10]", "result": "> 300 µM (not active)"}, {"measurement": "AC50", "setting": "[1]", "result": "8.79 µM (active)"}, {"measurement": "EC50", "setting": "[11]", "result": "37.7 µM (active)"}, {"measurement": "AC50", "setting": "Caspase-6", "result": "14.4 µM (active)"}]}, {"compound": "COC(=O)c1c(C)[nH]c(/C=N/Nc2ccccc2)c1C", "values": [{"measurement": "AC50", "setting": "A-375 [12]", "result": "> 35 µM (active)"}, {"measurement": "AC50", "setting": "HeLa", "result": "103 µM (active)"}, {"measurement": "AC50", "setting": "A-375 [13]", "result": "> 35 µM (active)"}]}]}
